Key:
Assay type in all cases: ADME, cell-based
[1] = Drug level in Caco-2 cells assessed as total recovery rate at 50 uM after 150 mins; settings: human, read-out: Drug uptake
[2] = Apparent permeability from basolateral to apical side of human Caco-2 cells at 30 uM after 90 mins
[3] = Apparent permeability from basolateral to apical side of human Caco-2 cells at 100 uM after 90 mins
[4] = Drug level in Caco-2 cells assessed as total recovery rate at 50 uM after 90 mins; settings: human, read-out: Drug uptake
[5] = test system: Caco-2; assay: Drug level in Caco-2 cells assessed as intracellular accumulation at 50 uM after 60 mins; settings: human, caco-2, 1 h
[6] = Apparent permeability from apical to basolateral side of human Caco-2 cells at 30 uM after 90 mins
[7] = test system: Caco-2; assay: Drug level in Caco-2 cells assessed as intracellular accumulation at 50 uM after 90 mins; settings: human, caco-2, 1.5 h
[8] = Apparent permeability from apical to basolateral side of human Caco-2 cells at 50 uM after 90 mins
[9] = test system: Caco-2; assay: Drug level in Caco-2 cells assessed as intracellular accumulation at 50 uM after 30 mins; settings: human, caco-2, 0.5 h
[10] = Drug level in Caco-2 cells assessed as total recovery rate at 50 uM after 60 mins; settings: human, read-out: Drug uptake
[11] = Drug level in Caco-2 cells assessed as total recovery rate at 50 uM after 120 mins; settings: human, read-out: Drug uptake
[12] = test system: Caco-2; assay: Drug level in Caco-2 cells assessed as intracellular accumulation at 50 uM after 180 mins; settings: human, caco-2, 3 h
[13] = test system: Caco-2; assay: Ratio of permeability from basolateral to apical side over apical to basolateral side of human Caco-2 cells at 50 uM; settings: caco-2, 50 µM
[14] = Drug level in Caco-2 cells assessed as total recovery rate at 50 uM after 180 mins; settings: human, read-out: Drug uptake
[15] = Apparent permeability from apical to basolateral side of human Caco-2 cells at 100 uM after 90 mins
[16] = test system: Caco-2; assay: Drug level in Caco-2 cells assessed as intracellular accumulation at 50 uM after 120 mins; settings: human, caco-2, 2 h
[17] = test system: Caco-2; assay: Ratio of permeability from basolateral to apical side over apical to basolateral side of human Caco-2 cells at 100 uM; settings: caco-2, 100 µM
[18] = test system: Caco-2; assay: Ratio of permeability from basolateral to apical side over apical to basolateral side of human Caco-2 cells at 30 uM; settings: caco-2, 30 µM
[19] = test system: Caco-2; assay: Drug level in Caco-2 cells assessed as intracellular accumulation at 50 uM after 150 mins; settings: human, caco-2, 2.5 h
[20] = Drug level in Caco-2 cells assessed as total recovery rate at 50 uM after 30 mins; settings: human, read-out: Drug uptake
[21] = Apparent permeability from basolateral to apical side of human Caco-2 cells at 50 uM after 90 mins
[22] = Apparent permeability from basolateral to apical side of human Caco-2 cells at 50 uM in presence of iodoacetamide; settings: Caco-2, with iodoacetamide (concentration not stated)
[23] = Apparent permeability from apical to basolateral side of human Caco-2 cells at 50 uM in presence of iodoacetamide; settings: Caco-2, with iodoacetamide (concentration not stated)

Question: With `CC(C)C[C@@H](c1c(O)c(C=O)c(O)c(C=O)c1O)[C@@]1(C)CC[C@@H]2[C@@H]1[C@H]1[C@@H](CC[C@@]2(C)O)C1(C)C` [MACROCARPAL A] as the compound, how does the recovery at 2.5 h, 50 µM [1] read?
Answer: 68.5%

Question: And the Papp B→A at 1.5 h, 30 µM [2]?
Answer: 1.63 ×10⁻⁶ cm/s

Question: What about the Papp B→A at 1.5 h, 100 µM [3] of the same compound?
Answer: 1.42 ×10⁻⁶ cm/s

Question: And the recovery at 1.5 h, 50 µM [4]?
Answer: 60.8%

Question: And the Drug uptake [5]?
Answer: 40.79%

Question: What about the Papp A→B at 1.5 h, 30 µM [6] of the same compound?
Answer: 1.66 ×10⁻⁶ cm/s

Question: What about the Drug uptake [7] of the same compound?
Answer: 44.21%

Question: What about the Papp A→B at 1.5 h, 50 µM [8] of the same compound?
Answer: 1.64 ×10⁻⁶ cm/s

Question: And the Drug uptake [9]?
Answer: 36.8%

Question: What about the recovery at 1 h, 50 µM [10] of the same compound?
Answer: 63.1%

Question: What about the recovery at 2 h, 50 µM [11] of the same compound?
Answer: 69.8%

Question: And the Drug uptake [12]?
Answer: 56.67%

Question: And the Ratio [13]?
Answer: 0.98

Question: What about the recovery at 3 h, 50 µM [14] of the same compound?
Answer: 75.7%

Question: And the Papp A→B at 1.5 h, 100 µM [15]?
Answer: 1.8 ×10⁻⁶ cm/s

Question: And the Drug uptake [16]?
Answer: 50.42%

Question: And the Ratio [17]?
Answer: 1.27

Question: And the Ratio [18]?
Answer: 1.02

Question: What about the Drug uptake [19] of the same compound?
Answer: 50.57%

Question: And the recovery at 0.5 h, 50 µM [20]?
Answer: 76.4%

Question: What about the Papp B→A at 1.5 h, 50 µM [21] of the same compound?
Answer: 1.68 ×10⁻⁶ cm/s

Question: For `CC(C)C[C@H](c1c(O)c(C=O)c(O)c(C=O)c1O)[C@@]1(C)CC[C@@H]2[C@@H]1[C@H]1[C@@H](CC[C@@]2(C)O)C1(C)C` [MACROCARPAL B], which recovery at 2.5 h, 50 µM [1] is on record?
Answer: 59.5%

Question: What about the Papp B→A at 1.5 h, 30 µM [2] of the same compound?
Answer: 1.84 ×10⁻⁶ cm/s

Question: And the Papp B→A at 1.5 h, 100 µM [3]?
Answer: 2.14 ×10⁻⁶ cm/s

Question: What about the recovery at 1.5 h, 50 µM [4] of the same compound?
Answer: 64.7%

Question: And the Drug uptake [5]?
Answer: 50.56%

Question: And the Papp A→B at 1.5 h, 30 µM [6]?
Answer: 2.29 ×10⁻⁶ cm/s

Question: And the Drug uptake [7]?
Answer: 46.98%

Question: What about the Papp A→B at 1.5 h, 50 µM [8] of the same compound?
Answer: 1.71 ×10⁻⁶ cm/s

Question: What about the Drug uptake [9] of the same compound?
Answer: 41.19%

Question: What about the recovery at 1 h, 50 µM [10] of the same compound?
Answer: 56.6%

Question: What about the recovery at 2 h, 50 µM [11] of the same compound?
Answer: 68.7%

Question: And the Drug uptake [12]?
Answer: 49.26%

Question: And the Ratio [13]?
Answer: 0.85

Question: And the recovery at 3 h, 50 µM [14]?
Answer: 55.5%

Question: What about the Papp A→B at 1.5 h, 100 µM [15] of the same compound?
Answer: 1.64 ×10⁻⁶ cm/s

Question: And the Drug uptake [16]?
Answer: 63.25%

Question: And the Ratio [17]?
Answer: 0.77

Question: What about the Ratio [18] of the same compound?
Answer: 1.25

Question: And the Drug uptake [19]?
Answer: 53.21%

Question: What about the recovery at 0.5 h, 50 µM [20] of the same compound?
Answer: 50%

Question: What about the Papp B→A at 1.5 h, 50 µM [21] of the same compound?
Answer: 2 ×10⁻⁶ cm/s

Question: What does the source list for `Cc1cc(=O)c2c(O)cc(O[C@@H]3O[C@H](COC(=O)C4=CC[C@H](C(C)(C)O)CC4)[C@@H](O)[C@H](O)[C@H]3O)cc2o1` [CYPELLOCARPA C]?
Answer: recovery at 2.5 h, 50 µM [1]: 54.6%; Papp B→A at 1.5 h, 30 µM [2]: 2.66 ×10⁻⁶ cm/s; Papp B→A at 1.5 h, 100 µM [3]: 2.71 ×10⁻⁶ cm/s; Papp B→A at 50 µM [22]: 2.46 ×10⁻⁶ cm/s; recovery at 1.5 h, 50 µM [4]: 52.8%; Drug uptake [5]: 0.83%; Papp A→B at 1.5 h, 30 µM [6]: 7.4 ×10⁻⁶ cm/s; Drug uptake [7]: 0.81%; Papp A→B at 1.5 h, 50 µM [8]: 5.99 ×10⁻⁶ cm/s; Drug uptake [9]: 1.42%; Papp A→B at 50 µM [23]: 0.897 ×10⁻⁶ cm/s; recovery at 1 h, 50 µM [10]: 53.1%; recovery at 2 h, 50 µM [11]: 52.7%; Drug uptake [12]: 0.89%; Ratio [13]: 1.8; recovery at 3 h, 50 µM [14]: 52.5%; Papp A→B at 1.5 h, 100 µM [15]: 4.82 ×10⁻⁶ cm/s; Drug uptake [16]: 0.69%; Ratio [17]: 1.81; Ratio [18]: 2.74; Drug uptake [19]: 0.81%; recovery at 0.5 h, 50 µM [20]: 56.8%; Papp B→A at 1.5 h, 50 µM [21]: 3.32 ×10⁻⁶ cm/s

Reference: ChEMBL document CHEMBL1138427, “Intestinal permeability of antivirus constituents from the fruits of Eucalyptus globulus Labill. in Caco-2 Cell Model” (Bioorg Med Chem Lett, 2007)
